{
  "source": "patent US11213515B1",
  "about": "“Compounds that interact with the Ras superfamily for the treatment of cancers, inflammatory diseases, rasopathies, and fibrotic disease” (Shy Therapeutics LLC, priority 2017, dated 2022)",
  "biological_target": "KRas G12D/Q61H double mutant (Homo sapiens (Human), UniProt P01116, G12D/Q61H)",
  "sequence (P01116-2 other isoform, or with tags, fused parts or gaps G12D/Q61H)": "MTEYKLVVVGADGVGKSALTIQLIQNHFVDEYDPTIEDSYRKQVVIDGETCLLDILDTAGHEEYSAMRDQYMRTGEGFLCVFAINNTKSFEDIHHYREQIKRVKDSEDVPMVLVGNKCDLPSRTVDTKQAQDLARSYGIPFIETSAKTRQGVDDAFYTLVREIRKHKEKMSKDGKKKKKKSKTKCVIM",
  "assay": "Ras GTP binding domain inhibition assay (labeled GTP)",
  "details": "20 μM compound",
  "description": "Buffer-I: • 50 mM Tris, pH 7.5 • 150 mM NaCl (optional) • 1 mM MgCl2 • 1 mM DTT. • KRas G12D mutant protein was expressed as a His-tagged protein. Purified His-KRas G12D protein was diluted in buffer-I to a final concentration of 3-10 μg/ml. • 200 μl of the diluted His-KRas G12D protein was added to a nickel coated 96 well plate and incubated overnight at 4° C. • The next day, wells were washed 3× in 200 μl of Buffer-I. • Then 200 μl of Buffer-I were added to each well in the presence of 1% DMSO. • Tested compounds were added to the protein-coated wells at a concentration of 20 μM, and incubated for 3 hours at room temperature. […]\nThen 22 μl of Cy3-GTP or Cy5-GTP was added to each well. The labeled GTP was incubated for 45 min. at room temperature. • Following GTP incubation, wells were washed 3× in Buffer-I, and 200 μl of Buffer-I were added to each well. • Following washes, the amount of bound labeled-GTP was measured with an Eppendorf AF2200 plate reader.\nBy substituting KRas G12D mutant protein with KRas G12C mutant, KRas wild type, KRas Q61H mutant, KRas G12D/Q61H double mutant or KRas G12C/Q61H double mutant under the assay conditions described above, KRas G12C mutant KRas wild type, KRas Q61H mutant, KRas G12D/Q61H double mutant and KRas G12C/Q61H double mutant inhibition, respectively, were each determined.",
  "data": [
    {"smiles": "COCCn1c(SC(C)c2nc(-c3cccnc3)no2)nc2cc(Cl)ccc2c1=O", "note": "(stereo not shown)", "values": [
      {"measurement": "inhibition at 20 µM", "result": "1 to 25", "unit": "%"}
    ]}
  ]
}
